Measurements: US7687071B1, “Nanoparticulate core shell systems and the use thereof in pharmaceutical and cosmetic preparation” (BASF Aktiengesellschaft, priority 1998, dated 2010)

Assay: Wide-angle X-ray scattering
Format: physicochemical
Conditions: FIG. 1
From the text: The scattering plots for active ingredient (top) and dry powder from 1b) (bottom) are depicted in FIG. 1. The ritonavir starting material is crystalline, as proven by the X-ray diagram which is characterized by a number of sharp interferences. […] This also applies to the ancillary substances lactose and ascorbyl palmitate which are otherwise crystalline.

## CC(C)c1nc(CN(C)C(=O)N[C@H](C(=O)N[C@@H](Cc2ccccc2)C[C@H](O)[C@H](Cc2ccccc2)NC(=O)OCc2cncs2)C(C)C)cs1 [ritonavir]
  solid state by X-ray scattering plot: crystalline
